Laboratory results as given in patent publication US20240246954A1, “COMPOSITIONS AND METHODS FOR INHIBITING KRAS” (TheRas, Inc., priority 2021, published 2024).

Key:
[1] = target: T1, Avi-KRAS G12D/Q25A (1-169) GppNHp/3×FLAG-PI3KCA (157-299) (Homo sapiens, UniProt P01116, G12D/Q25A); assay: HTRF PI3KCA-KRAS G12D/Q25A-GppNHp disruption assay; type: biochemical; details: 1 h incubation
T1 construct: Avi-KRAS G12D/Q25A (1-169) GppNHp
Protocol: (§1) The HTRF assay employed the following protocol:
(§2) Compounds were dispensed in assay plate (384-well, Grenier Bione #784075) using Echo (model 555) with dose response settings: 200 nL final volume, titration from 100 μM as a 10-point dilution series. Protein mix was prepared in assay buffer, and dispensed on plates, 10 μL per well, then incubated for 1 h at room temperature, with 700 rpm shaking. Reagents mix was prepared and dispensed on plates, 10 μL per well, then incubated for 1 h at room temperature, with 700 rpm shaking.
(§3) Plates were analyzed on an Envision plate reader using the following setting: Excitation 320 nm, Bandwidth […]; Emission 615 nm, Bandwidth […], Gain 100%, Flashes 100, Lag 60 μs. Data was reported as percentage of activity, with DMSO as 100%. Data was plotted and analyzed using Prism 8.

[2] = target: T2, Avi-KRAS G12D (1-169) GppNHp/RAF1 RBD-3×FLAG (52-151) (Homo sapiens, UniProt P01116, G12D); assay: HTRF Raf1-KRAS G12D-GppNHp disruption assay; type: biochemical; details: 1 h incubation
T2 construct: Avi-KRAS G12D (1-169) GppNHp
T2 sequence (P01116 1-169 isoform P01116-2 G12D limits assumed): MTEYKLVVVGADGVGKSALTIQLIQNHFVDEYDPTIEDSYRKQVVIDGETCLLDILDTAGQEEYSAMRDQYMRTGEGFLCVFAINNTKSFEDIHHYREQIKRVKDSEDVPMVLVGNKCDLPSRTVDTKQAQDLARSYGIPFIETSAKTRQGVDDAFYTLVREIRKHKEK
Protocol: as §1, §2, §3

T1 sequence (P01116 1-169 isoform P01116-2 G12D/Q25A limits assumed): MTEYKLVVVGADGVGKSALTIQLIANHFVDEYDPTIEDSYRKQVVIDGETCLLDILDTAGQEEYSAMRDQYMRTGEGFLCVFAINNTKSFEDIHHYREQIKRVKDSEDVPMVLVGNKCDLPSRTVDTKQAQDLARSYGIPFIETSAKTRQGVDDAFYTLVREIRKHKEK

Compound | IC50 [1] [µM] | IC50 [2] [µM]
CN1CCC[C@H]1COc1nc(N[C@H]2C[C@H](N)C2)c2cc(Cl)c(-c3ccc(F)c4sc(N)nc34)c(F)c2n1 (atropisomer, axis not shown) [Compound 83] | 1 to 10 | 1 to 10
CN(c1nc(OCC23CCCN2CCC3)nc2c(F)c(-c3ccc(F)c4sc(N)nc34)c(C(F)(F)F)cc12)[C@H]1C[C@@H](N)C1 (atropisomer, axis not shown) [Compound 250] | 0.1 to 1 | 0.1 to 1
CN(c1nc(OCC23CCCN2CCC3)nc2c(F)c(-c3ccc(F)c4sc(N)nc34)c(C(F)(F)F)cc12)[C@H]1C[C@@H]2CC[C@H]1N2 (atropisomer, axis not shown) [Compound 270] | 10 to 30 | 1 to 10
CN(c1nc(OCC23CCCN2CCC3)nc2c(F)c(-c3ccc(F)c4sc(N)nc34)c(C(F)(F)F)cc12)[C@H]1C[C@H]2CC[C@@H]1N2 (atropisomer, axis not shown) [Compound 271] | 1 to 10 | 0.1 to 1
CN(c1nc(OCC23CCCN2CCC3)nc2c(F)c(-c3ccc(F)c4sc(N)nc34)c(C(F)(F)F)cc12)[C@@H]1CCN(C(=O)CN)C1 (atropisomer, axis not shown) [Compound 277] | 1 to 10 | 1 to 10
CN(c1nc(OCC23CCCN2CCC3)nc2c(F)c(-c3ccc(F)c4sc(N)nc34)c(C(F)(F)F)cc12)[C@@H]1CCN(C(N)=O)C1 (atropisomer, axis not shown) [Compound 278] | 1 to 10 | 1 to 10
CN(c1nc(OCC23CCCN2CCC3)nc2c(F)c(-c3ccc(F)c4sc(N)nc34)c(C(F)(F)F)cc12)[C@@H]1CCN(C(N)=O)C1 (atropisomer, axis not shown) [Compound 279] | 1 to 10 | 10 to 30
Nc1nc2c(-c3c(C(F)(F)F)cc4c(N[C@H]5C[C@@H]6CC[C@H]5N6)nc(OCC56CCCN5CCC6)nc4c3F)ccc(F)c2s1 (atropisomer, axis not shown) [Compound 287] | 1 to 10 | 1 to 10
CN(c1nc(OCC23CCCN2CCC3)nc2c(F)c(-c3ccc(F)c4sc(N)nc34)c(C(F)(F)F)cc12)[C@H]1CC[C@@H](N)CC1 (atropisomer, axis not shown) [Compound 294] | 1 to 10 | 0.1 to 1
CN(c1nc(OCC23CCCN2CCC3)nc2c(F)c(-c3ccc(F)c4sc(N)nc34)c(C(F)(F)F)cc12)[C@@H]1CCNC1 (single isomer, unassigned) [Compound 238] | 1 to 10 | 1 to 10
Nc1nc2c(-c3c(C(F)(F)F)cc4c(N5CCNCC5)ncnc4c3F)ccc(F)c2s1 [Compound 65, 7-fluoro-4-(8-fluoro-4-(piperazin-1-yl)-6-(trifluoromethyl)quinazolin-7-yl)benzo[d]thiazol-2-amine] | 10 to 30 | 10 to 30
C#Cc1cc2c(N3CCNCC3)ncnc2c(F)c1-c1ccc(F)c2sc(N)nc12 [Compound 66, 4-(6-ethynyl-8-fluoro-4-(piperazin-1-yl)quinazolin-7-yl)-7-fluorobenzo[d]thiazol-2-amine] | 10 to 30 | 10 to 30
CC(=O)N1CC(Nc2nc(OC[C@@H]3CCCN3C)nc3c(F)c(-c4ccc(F)c5sc(N)nc45)c(Cl)cc23)C1 [Compound 67] | 10 to 30 | 10 to 30
CO[C@@H]1CN(C)C[C@H]1Oc1nc(NC2CNC2)c2cc(Cl)c(-c3ccc(F)c4sc(N)nc34)c(F)c2n1 [Compound 68] | 10 to 30 | 10 to 30
CO[C@@H]1C[C@@H](COc2nc(N3CCNCC3)c3cc(Cl)c(-c4ccc(F)c5sc(N)nc45)c(F)c3n2)N(C)C1 [Compound 69] | 10 to 30 | 10 to 30
CNCCNc1nc(OC[C@@H]2CCCN2C)nc2c(F)c(-c3ccc(F)c4sc(N)nc34)c(Cl)cc12 [Compound 70] | 10 to 30 | 1 to 10
CN1CCC[C@H]1COc1nc(N2CC3CNCC3C2)c2cc(Cl)c(-c3ccc(F)c4sc(N)nc34)c(F)c2n1 (stereo partly drawn) [Compound 71] | 10 to 30 | 10 to 30
CO[C@@H]1C[C@@H](COc2nc(NC3CNC3)c3cc(Cl)c(-c4ccc(F)c5sc(N)nc45)c(F)c3n2)N(C)C1 [Compound 73] | 10 to 30 | 1 to 10
CN(C)CCNc1nc(OC[C@@H]2CCCN2C)nc2c(F)c(-c3ccc(F)c4sc(N)nc34)c(Cl)cc12 [Compound 75] | 10 to 30 | 1 to 10
CC(=O)NCCNc1nc(OC[C@@H]2CCCN2C)nc2c(F)c(-c3ccc(F)c4sc(N)nc34)c(Cl)cc12 [Compound 76] | 10 to 30 | 10 to 30
C[C@H]1CNCCN1c1nc(OC[C@@H]2CCCN2C)nc2c(F)c(-c3ccc(F)c4sc(N)nc34)c(Cl)cc12 [Compound 78] | 10 to 30 | 10 to 30
CN1CCC[C@H]1COc1nc(NC2CNC2)c2cnc(-c3ccc(F)c4sc(N)nc34)c(F)c2n1 [Compound 80] | 10 to 30 | 10 to 30
CN1CCC[C@H]1COc1nc(NCCN)c2cnc(-c3ccc(F)c4sc(N)nc34)c(F)c2n1 [Compound 81] | 10 to 30 | 10 to 30
Nc1nc2c(-c3c(Cl)cc4c(N5CCNCC5)nc(OCC56CCCN5CCC6)nc4c3F)ccc(F)c2s1 [Compound 82] | 1 to 10 | 1 to 10

Compound | IC50 [1] [µM] | IC50 [2] [µM]
C[C@H]1CN(c2nc(OC[C@@H]3CCCN3C)nc3c(F)c(-c4ccc(F)c5sc(N)nc45)c(Cl)cc23)CCN1 [Compound 84] | 10 to 30 | 10 to 30
CN1CCC[C@H]1COc1nc(N2CC3(CCCN3)C2)c2cc(Cl)c(-c3ccc(F)c4sc(N)nc34)c(F)c2n1 [Compound 85] | 10 to 30 | 10 to 30
CN1CCC[C@H]1COc1nc(NCCN)c2cc(Cl)c(-c3cccc4nc(N)n(C)c34)c(F)c2n1 [Compound 86] | 10 to 30 | 10 to 30
CNc1nc2c(-c3c(Cl)cc4c(NCCN)nc(OC[C@@H]5CCCN5C)nc4c3F)ccc(F)c2s1 [Compound 87] | 10 to 30 | 10 to 30
Nc1nc2c(-c3c(C(F)(F)F)cc4c(NC5CNC5)ncnc4c3F)ccc(F)c2s1 [Compound 88] | 10 to 30 | 10 to 30
Nc1nc2c(-c3c(Cl)cc4c(NC5CNC5)nc(O)nc4c3F)ccc(F)c2s1 [Compound 90] | 10 to 30 | 10 to 30
CN1CCC[C@H]1COc1nc(NC2CCNCC2)c2cc(Cl)c(-c3ccc(F)c4sc(N)nc34)c(F)c2n1 [Compound 91] | 1 to 10 | 1 to 10
CN1CCC[C@H]1COc1nc(NCCN)c2cc(Cl)c(-c3cccc4oc(N)nc34)c(F)c2n1 [Compound 92] | 10 to 30 | 10 to 30
CN1CCC[C@H]1COc1nc(NCCN)c2cc(Cl)c(-c3cccc4nc(N)cn34)c(F)c2n1 [Compound 93] | 10 to 30 | 10 to 30
N#Cc1cc2c(N3CCNCC3)ncnc2c(F)c1-c1ccc(F)c2sc(N)nc12 [Compound 94, 7-(2-amino-7-fluorobenzo[d]thiazol-4-yl)-8-fluoro-4-(piperazin-1-yl)quinazoline-6-carbonitrile] | 10 to 30 | 10 to 30
CN1CCC[C@H]1COc1nc(N2C[C@H]3NCC[C@H]32)c2cc(Cl)c(-c3ccc(F)c4sc(N)nc34)c(F)c2n1 [Compound 95] | 10 to 30 | 10 to 30
CN1CCC[C@H]1COc1nc(N2CC3(CCN3)C2)c2cc(Cl)c(-c3ccc(F)c4sc(N)nc34)c(F)c2n1 [Compound 96] | 10 to 30 | 10 to 30
CN1CCC[C@H]1COc1nc(NC2CN(C(=O)CN)C2)c2cc(Cl)c(-c3ccc(F)c4sc(N)nc34)c(F)c2n1 [Compound 97] | 10 to 30 | 1 to 10
CN1CCC[C@H]1COc1nc(NC2CCNC2)c2cc(Cl)c(-c3ccc(F)c4sc(N)nc34)c(F)c2n1 (stereo partly drawn) [Compound 98] | 1 to 10 | 1 to 10
CN1CCC[C@H]1COc1nc(NC2CCCNC2)c2cc(Cl)c(-c3ccc(F)c4sc(N)nc34)c(F)c2n1 (stereo partly drawn) [Compound 99] | 10 to 30 | 1 to 10
CN1CCC[C@H]1COc1nc(NC2CN(C(=O)CN)C2)c2cc(C(F)(F)F)c(-c3ccc(F)c4sc(N)nc34)c(F)c2n1 [Compound 130] | – | 1 to 10
NC(=O)N1CC(Nc2nc(OCC34CCCN3CCC4)nc3c(F)c(-c4ccc(F)c5sc(N)nc45)c(-c4ccoc4)cc23)C1 [Compound 167] | – | 10 to 30
Nc1nc2c(-c3c(C(F)(F)F)cc4c(N5CCNCC5)nc(OC[C@@H]5CCCN5CCF)nc4c3F)ccc(F)c2s1 [Compound 168] | – | 10 to 30
Nc1nc2c(-c3c(C(F)(F)F)cc4c(N5CCNCC5)nc(OC[C@]56CCCN5C[C@H](F)C6)nc4c3F)ccc(F)c2s1 [Compound 169] | – | 10 to 30
CN(c1nc(OCC23CCCN2CCC3)nc2c(F)c(-c3ccc(F)c4sc(N)nc34)c(C(F)(F)F)cc12)C1CN(C(=O)CN)C1 [Compound 171] | – | 1 to 10
Nc1nc2c(-c3c(C(F)(F)F)cc4c(N5CCNCC5)nc(OC[C@@H]5CCCN5CC(F)F)nc4c3F)ccc(F)c2s1 [Compound 172] | – | 10 to 30
CN(c1nc(OCC23CCCN2CCC3)nc2c(F)c(-c3ccc(F)c4sc(N)nc34)c(C(F)(F)F)cc12)C1CN(C(N)=O)C1 [Compound 173] | – | 1 to 10
NCC(=O)N1CCN(c2nc(OC[C@@H]3CCCN3CC(F)F)nc3c(F)c(-c4ccc(F)c5sc(N)nc45)c(C(F)(F)F)cc23)CC1 [Compound 193] | – | 10 to 30
Nc1nc2c(-c3c(-c4ccoc4)cc4c(N5CC6CC(C5)N6)nc(OCC56CCCN5CCC6)nc4c3F)ccc(F)c2s1 [Compound 194] | – | 1 to 10
